This test deals with pressor response to exogenous angiotensin II. Description: Inhibition of pressor response to angiotensin II in conscious rats. The test is classed as in vivo. Particulars: Rattus norvegicus, iv, change in mean arterial pressure, read-out: IC50, dose of compound needed to produce 50% inhibition of the control response to angiotensin II. Here is the method:
Angiotensin II antagonist activity of the compounds of Formula (I) is assessed by in and in vivo methods. In vitro antagonist activity is determined by the ability of the compounds to compete with ^125 I-angiotensin II for binding to vascular angiotensin II receptors and by their ability to antagonize the contractile response to angiotensin II in the isolated rabbit aorta. In vivo activity is evaluated by the efficacy of the compounds to inhibit the pressor response to exogenous angiotensin II in conscious rats and to lower blood pressure in a rat model of renin dependent hypertension.
Rats are prepared with indwelling femoral arterial and venous catheters and a stomach tube (Gellai et al., Kidney Int. 15:419, 1979). Two to three days following surgery the rats are placed in a restrainer and blood pressure is continuously monitored from the arterial catheter with a pressure transducer and recorded on a polygraph. The change in mean arterial pressure in response to intravenous injections of […] angiotensin II is compared at various time points prior to and following the administration of the compounds intravenously or orally at doses of 3 to 300 mg/kg. The dose of compound needed to produce 50% inhibition of the control response to angiotensin II (IC50) is used to estimate the potency of the compounds. […]

For `CCCCc1ncc(C[C@H](NC(=O)CCC)C(=O)O)n1Cc1ccccc1Cl` [Example 8, 3-[(2-Chlorophenyl)methyl]-2-n-butyl-N-butyrylhistidine], the ED50 was 10 mg/kg.

These data come from patent publication US5565480A, “Substituted histidines” (SmithKline Beecham Corporation, priority 1995, dated 1996).
